Eight compounds from ChEMBL document CHEMBL1201862, “PubChem BioAssay data set” (2004) can be followed below.

The source made the active and inactive calls.

Assay [1] is described as follows: antimalarial activity against Dd2 parasites – SYBR Green fluorescence, erythrocytes, dry powder, set 2, dose response (AID 1159574). Format: functional, cell-based.
Assay [2] in a line: growth inhibition of PfATP4-mutant resistant parasites – NITD609-resistant line, SYBR Green, dry powder, dose response (AID 1159571).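 Note: parasites synchronized at ring stage by sorbitol before testing.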 Format: functional, cell-based.
Assay [3] in a line: Plasmodium falciparum Dd2 Sybr green parasite growth Measured in Cell-Based and Microorganism Combination System Using Plate Reader - 2153-01_Inhibitor_Dose_DryPowder_Activity_Set3. In kind it is functional.
Assay [4] can be described thus: P. falciparum Dd2 growth inhibitors, dose response, SYBR Green, cherry-picked samples (AID 1159567). In kind it is functional, cell-based.
Assay [5] can be described thus: Dd2 malaria parasite growth inhibition potency – SYBR Green, dry powder samples, dose response (AID 1159566).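 Note: potency for growth inhibition with lower SYBR green DNA signal.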 Format: functional, cell-based.
A short description of assay [6]: growth inhibition of yeast DHODH-expressing 3D7 parasites – SYBR Green, dry powder samples, dose response (AID 1159570).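 Note: parasite growth measured after 72 hours of compound exposure.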 In kind it is functional, cell-based.
A short description of assay [7]: toxicity to human HepG2 hepatoma cells – cell-based, plate reader, dry powder samples, cytotoxicity control, dose response (AID 1159569).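 Note: inhibitor potency with signal falling toward the positive control level.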 In kind it is functional.
In assay [8] the target is G-protein coupled receptor 183 (Homo sapiens, UniProt P32249). The assay can be described thus: SAR confirmation of small molecule antagonists of the EBI2 receptor via a luminescent beta-arrestin assa. Format: functional.
G-protein coupled receptor 183, sequence (P32249 whole entry): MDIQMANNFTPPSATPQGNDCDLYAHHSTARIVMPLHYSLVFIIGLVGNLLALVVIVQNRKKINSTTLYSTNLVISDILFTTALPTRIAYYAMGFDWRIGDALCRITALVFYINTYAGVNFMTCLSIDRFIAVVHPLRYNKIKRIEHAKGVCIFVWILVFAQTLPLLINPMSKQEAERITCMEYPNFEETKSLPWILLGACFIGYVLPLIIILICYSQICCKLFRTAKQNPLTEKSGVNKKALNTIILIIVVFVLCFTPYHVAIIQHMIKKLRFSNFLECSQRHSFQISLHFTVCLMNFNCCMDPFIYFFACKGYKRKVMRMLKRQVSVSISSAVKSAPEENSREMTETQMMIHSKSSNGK
Assay [9] has as its target T1, Low molecular weight phosphotyrosine protein phosphatase (Homo sapiens, UniProt P24666).
T1 sequence (P24666 whole entry): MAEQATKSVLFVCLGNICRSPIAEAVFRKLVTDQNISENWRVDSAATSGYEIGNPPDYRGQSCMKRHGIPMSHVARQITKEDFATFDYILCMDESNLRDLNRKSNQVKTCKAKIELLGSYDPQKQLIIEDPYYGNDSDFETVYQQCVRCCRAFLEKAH
The assay can be described thus: inhibition of human LMPTP enzyme activity – biochemical, absorbance, pNPP substrate, LMPTP-A isoform, set 2, orthogonal assay, dose response (AID 743308). Format: functional.

The target in assay [10] is T1, Low molecular weight phosphotyrosine protein phosphatase. The assay can be described thus: inhibition of LMPTP-A enzymatic activity – biochemical, OMFP substrate, fluorescence intensity, set 2, dose response (AID 743307). Format: functional.
The nature of assay [11]: Dd2 parasite growth inhibition in erythrocytes – SYBR Green, dry powder samples, set 9, dose response (AID 1159568). In kind it is functional, cell-based.
A further assay relates to H9c2. The assay can be described thus: cells. In kind it is functional, cell-based. The conditions noted are these: Rattus norvegicus, H9c2, Myocardium.
Another assay in a line: cells. Format: functional, cell-based. The note with it: INS-1E.
The nature of assay [12]: IC50 of insulin release inhibition, rat insulinoma INS-1E line, 5 mM glucose, cell-based (AID 1117331). In kind it is functional.
Assay [13] in a line: rise of 2N DNA cells, HeLa – IC50, dose response (AID 1117349). In kind it is functional, cell-based.
The nature of assay [14]: rise of 4N DNA cells, HeLa – IC50, dose response (AID 1117351). In kind it is functional, cell-based.
A short description of assay [15]: Potency on glucagon-like peptide 1 release, dose-response in NCI-H716 cell line, half maximal inhibitory concentration (AID 1117344). In kind it is functional, cell-based.
Assay [16] in a line: reduction of Shn3 3'UTR-driven luciferase in osteoblasts – cell-based, Clone20 osteoblasts, firefly luciferase, cherry-picked, dose response (AID 624132).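 Note: firefly luciferase luminescence from reporter carrying the Shn3 3'UTR in osteoblasts.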 Format: functional.
Assay [17] in a line: glucagon-like peptide-1 release potency in STC-1, concentration-response, half-maximal inhibitory concentration in the STC-1 line (AID 1117345). In kind it is functional, cell-based.
Assay [18] in a line: non-specific 3'UTR reporter inhibition in Clone20-Shn3RL – cell-based, Renilla luciferase, cherry-picked, counter-screen for Shn3 inhibitor project, dose response (AID 624133). In kind it is functional. Background: A counterscreen serves to expose hits that act by an unwanted route or on another target.
Assay [19] deals with T2, Bcl-2-related protein A1 (Mus musculus, UniProt Q07440).
T2 sequence (Q07440 whole entry): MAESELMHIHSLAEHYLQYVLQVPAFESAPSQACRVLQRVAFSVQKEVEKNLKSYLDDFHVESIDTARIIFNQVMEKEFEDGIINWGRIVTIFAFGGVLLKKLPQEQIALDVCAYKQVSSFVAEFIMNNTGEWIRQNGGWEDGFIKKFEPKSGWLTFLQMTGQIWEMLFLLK
The assay can be described thus: small-molecule antagonists of Bfl-1/BH3 interaction – biochemical, TR-FRET, mouse Bfl-1, confirmation (AID 621).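 Note: TR-FRET binding of GST-Bfl-1 to FITC-labelled Bid peptide via terbium antibody.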 On the technique in general: TR-FRET usually uses a lanthanide donor and a delayed reading to cut background.

The target of assay [20] is T2, Bcl-2-related protein A1. The assay can be described thus: displacement of Bid BH3 peptide from Bfl-1 – biochemical, fluorescence polarization, FITC-Bid, mouse, primary screen (AID 432). In general terms: Polarisation of emitted light reports the rotation of a fluorescent probe.
A short description of assay [21]: HCT116 cell viability decrease, GSK3B pretreatment – CellTiter-Glo, IC50, dose response (AID 1117339). In kind it is functional. The conditions noted are these: HCT-116.
Assay [22] can be described thus: CellTiter-Glo luminescence survival assay, SW480 colon tumor line, concentration-response curve, half-maximal inhibitory concentration (AID 1117338). Format: functional.
The nature of assay [23]: cytotoxicity toward Colo320 cells – cell-based, CellTiter-Glo luminescence, IC50, dose response (AID 1117334). The conditions noted are these: COLO 320. In kind it is functional.
Assay [24] is described as follows: RKO cell viability reduction, dose response, CellTiter-Glo luminescence (AID 1117322). Format: functional.
Assay [25] is described as follows: cytotoxicity toward HCT116 cells – cell-based, CellTiter-Glo luminescence, IC50, dose response (AID 1117332). In kind it is functional. The conditions noted are these: HCT-116.
Assay [26] can be described thus: cytotoxicity toward HT-29 cells – cell-based, CellTiter-Glo luminescence, IC50, dose response (AID 1117330). In kind it is functional.
The nature of assay [27]: SNU-C1 cell viability reduction, dose response, CellTiter-Glo luminescence (AID 1117323). In kind it is functional, cell-based.
Assay [28] in a line: Reduced DLD-1 viability, concentration-response, CellTiter-Glo luminescence (AID 1117352). In kind it is functional.

What is called AC50 is the concentration at which the activity in the assay is half-maximal. Turning to `COc1ccc(NC(=O)N2CCCCN3[C@@H](CO)[C@H](c4ccc(C#Cc5ccccc5)cc4)[C@@H]3C2)cc1`, the AC50 in [1] is 0.036 µM (active).

`CCCC(=O)Nc1ccc2c(c1)OC[C@@H](C)N(Cc1cccc(F)c1)C[C@@H](C)[C@H](OC)CN(C)C2=O`: the AC50 is 2.24 µM (active) in assay [2]; 1.82 µM (active) in [3]; 1.09 µM (active) in assay [4]; 0.884 µM (active) in [5]; 5.76 µM (active) in assay [6]; 58.9 µM (active) in assay [7].

Usually IC50 stands for the concentration that gives 50% inhibition. Take `CCCCN1CCN(C(=O)/C=C/c2ccc(Br)cc2)CC1`: the IC50 in assay [8] is 0.0021 µM (active).

As to `COc1cccc(-c2cc(NCCCN3CCCCC3)c3ccccc3n2)c1`, the IC50 in assay [9] is 4.89 µM (active); in assay [10] it was 2.21 µM (active).

As for `COc1cccc(-c2cccc(-c3nc(C(=O)NCc4ccc(Oc5ccccc5)cc4)cc4c3[C@@H](CCO)N([S+]([O-])C(C)(C)C)C4)c2)c1` (stereo partly specified), the AC50 in assay [2] was 0.449 µM (active); in [4], 0.671 µM (active); in [5] it was 0.237 µM (active); in assay [6], 0.826 µM (active); in assay [11], 0.447 µM (active).

For the compound `O=c1[nH]c2ccccc2n1CCCN1CCC(n2c(=O)[nH]c3cc(Cl)ccc32)CC1` [DOMPERIDONE], the IC50 in the assay on H9c2 is > 79 µM (inactive); in the assay “cells”, > 33.3 µM (inactive); in assay [12], 12.4 µM (inactive).

`CC[C@H](C)C(=O)O[C@H]1C[C@@H](C)C=C2C=C[C@H](C)[C@H](CC[C@@H]3C[C@@H](O)CC(=O)O3)[C@H]21` [LOVASTATIN]: the IC50 in assay [13] was > 10 µM (inactive); in assay [14] it was > 10 µM (inactive); in assay [15], 32.9 µM (inactive); in assay [17] it was > 40 µM (inactive); against Bcl-2-related protein A1 [19] it was > 100 µM (not active); at Bcl-2-related protein A1 [20] it was > 100 µM (not active). In addition, the AC50 in assay [16] is 1.62 µM (active); in assay [18] it was 4.74 µM (active).

`O=C(O)CN(CCN(CC(=O)O)CC(=O)O)CCN(CC(=O)O)CC(=O)O` [PENTETIC ACID]: the IC50 in assay [21] was 0.896 µM (active); in assay [13] it was > 10 µM (inactive); in assay [22], 3.14 µM (active); in assay [23], > 20 µM (inactive); in assay [14], > 10 µM (inactive); in [24], 2.96 µM (active). Besides, the IC50 was > 6.67 µM (inactive) in [25], > 20 µM (inactive) in [26], > 20 µM (inactive) in [27] and > 20 µM (inactive) in assay [28].
